Data on two compounds can be found in patent publication US7534456B2, “Agastache rugosa extract and composition containing tilianin isolated and purified from said extract having anti-inflammatory activity and anti-atherogenic activity” (Korea Research Institute of Bioscience and Biotechnology, priority 2001, dated 2009).

The test system of test [1] is ICAM-1 expression for THP-1 cells. Briefly: Inhibitory activity against TNF-α-induced ICAM-1 expression in THP-1 cells. Conditions: 30 μM, TNF-α 10 ng/ml. The format is cell-based, human. The procedure: The following is the process of experiment on inhibitory activity against ICAM-1 expression for THP-1 cells.
THP-1 cells were cultured in CO2 incubator (5% CO2, 95% relative humidity, 37° C.) using RPMI-1640 broth (RPMI-1640, Gibco BRL 23400-021, 1.62%; 0.2% NaHCO3; 1% antimicrobial agents with penicillin and streptomycin mixed) with 10% fetal bovine serum (Gibco BRL 26140-079, FBS) added to the culture media. Samples for test were melted in DMSO, diluted with phosphate buffered saline solution (PBS) to below 5% and added to reactive solution by 5%, so as to set the concentration of DMSO with samples melted therein not to exceed 0.25% in the final solution. 200 μl of THP-1 cells (2.5×10^5 cells/ml) was divided into each well of 96-well with addition of 10 μl of solution prepared at constant concentration. After culturing it in 37° C. CO2 incubator for 1 hour, TNF-α (final concentration: 10 ng/ml) was added to induce ICAM-1 expression and it was cultured in CO2 incubator for 16 more hours. The reactive solution was made to isolate nonspecific bonding part by adding 25 μl of glutaraldehyde buffer solution (glutaraldehyde 2.08% in PBS) to set cells at well, washing it with PBST (0.005% tween-20 in PBS) and adding 3% skim milk. […] Then, the inhibition ratio of the expression by samples was calculated after measuring absorbance at 490 nm and ICAM-1 expression of THP-1 cells by TNF-α.

In another test the test system is atherosclerotic lesion. Briefly: Inhibitory activity against atherosclerotic lesion in LDLR−/− mice on high cholesterol diet. As to conditions: 1.0% in high cholesterol diet, 8 weeks. The format is in vivo. An excerpt: The process of experiment on inhibitory activity of atherosclerotic lesion described in detail is as follows. Step I) Mouse Breeding and Experiment on Administration of the Extract of […] rugosa to the Mouse […] During the experiment, the mice had free access to water and food. Step II) Measurement of Atherosclerotic Lesion Models After 8 weeks of experiment, the blood was gathered through the eyes of all mice. Then, PBS ([…]) was flowed through the heart and the artery of mice for 10 minutes and subsequently paraformaldehyde was flowed through for 5 minutes. […] Six frozen sections (9 μm each), prepared beginning from the area of artery using microtome maintaining low temperature (-20° C.), were stained with Oil red O and counter-stained with Harris hematoxylin. These stained sections were then quantified by computer-assisted morphometry and the average lesion size was calculated for each animal group. In this manner, inhibitory activity against sample group's lesion according to outbreak of control group's lesion was calculated.

Marks after values point to notes of the source that are not given here.

Take `C[C@@H]1C[C@H]2[C@@H]3CCC4=CC(=O)C=C[C@]4(C)[C@@]3(F)[C@@H](O)C[C@]2(C)[C@@]1(O)C(=O)CO` [Dexamethasone, dexamethasone, reference compound]: in test [1], the “Inhibitory activity of ICAM-1 expression (%)” value is listed as 40.1 ± 1.7%.
`CC[C@H](C)C(=O)O[C@H]1C[C@@H](C)C=C2C=C[C@H](C)[C@H](CC[C@@H]3C[C@@H](O)CC(=O)O3)[C@H]21` [Lovastatin, lovastatin, reference compound]: the “Lesion size (μm^2)” value in the test on atherosclerotic lesion came to 291442.0 ± 96927.8 μm^2. In the test on atherosclerotic lesion (vs control group), the “Inhibitory activity (%) against atherosclerotic lesion” value is recorded as 50.9*** %.
